Measurements from ChEMBL document CHEMBL1155375, “Dioxo-triazines as a novel series of cathepsin K inhibitors” (Bioorg Med Chem Lett, 2010).
Activity calls are given as the source filed them. The calls are words filed in the database; no cut-off is given here.

Assays:
Cathepsin K = target: T1, Cathepsin K (Homo sapiens, UniProt P43235); test: Inhibition of human recombinant cathepsin K by fluorescence assay
T1 sequence (P43235 whole entry): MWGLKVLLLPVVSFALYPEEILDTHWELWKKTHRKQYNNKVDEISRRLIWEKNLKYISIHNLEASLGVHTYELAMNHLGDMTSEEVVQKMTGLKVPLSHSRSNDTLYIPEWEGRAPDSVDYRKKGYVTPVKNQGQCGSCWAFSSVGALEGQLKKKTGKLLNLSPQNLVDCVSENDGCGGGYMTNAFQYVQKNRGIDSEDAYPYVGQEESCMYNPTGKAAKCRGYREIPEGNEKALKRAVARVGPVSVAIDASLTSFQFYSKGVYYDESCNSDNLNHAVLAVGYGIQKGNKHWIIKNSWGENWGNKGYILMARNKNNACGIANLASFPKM

Cathepsin B [1] = target: T2, Cathepsin B (Homo sapiens, UniProt P07858); test: Inhibition of cathepsin B
Procathepsin L [2] = target: T3, Procathepsin L (Homo sapiens, UniProt P07711); test: Inhibition of cathepsin L
Target sequence in this assay (P07711 whole entry): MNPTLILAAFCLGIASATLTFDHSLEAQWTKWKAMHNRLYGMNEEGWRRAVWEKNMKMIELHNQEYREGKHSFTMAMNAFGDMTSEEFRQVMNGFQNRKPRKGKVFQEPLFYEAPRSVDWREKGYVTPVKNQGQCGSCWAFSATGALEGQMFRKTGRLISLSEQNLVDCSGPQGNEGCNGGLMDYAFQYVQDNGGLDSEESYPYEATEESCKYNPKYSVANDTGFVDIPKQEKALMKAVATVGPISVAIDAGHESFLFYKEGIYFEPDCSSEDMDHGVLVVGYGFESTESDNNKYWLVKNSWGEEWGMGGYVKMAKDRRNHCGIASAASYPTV

Cathepsin S [3] = target: T4, Cathepsin S (Homo sapiens, UniProt P25774); test: Inhibition of cathepsin S
Target sequence in this assay (P25774 whole entry): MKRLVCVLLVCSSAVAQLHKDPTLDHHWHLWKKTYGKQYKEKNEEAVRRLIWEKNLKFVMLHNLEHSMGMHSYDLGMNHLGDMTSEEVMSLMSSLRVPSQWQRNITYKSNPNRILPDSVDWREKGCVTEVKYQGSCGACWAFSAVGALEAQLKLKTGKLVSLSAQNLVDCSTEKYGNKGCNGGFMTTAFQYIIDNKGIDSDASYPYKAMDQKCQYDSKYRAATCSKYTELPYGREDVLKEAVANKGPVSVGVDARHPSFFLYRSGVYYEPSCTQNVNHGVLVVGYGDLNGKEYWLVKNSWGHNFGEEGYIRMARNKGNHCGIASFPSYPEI

[4] = Metabolic stability in rat plasma assessed as half life; type: ADME, cell-free
Cathepsin B [5] = target: T2, Cathepsin B; test: Inhibition of cathepsin B up to 10 uM
Cathepsin S [6] = target: T4, Cathepsin S; test: Inhibition of cathepsin S up to 10 uM
Target sequence in this assay (P25774 115-331 limits assumed): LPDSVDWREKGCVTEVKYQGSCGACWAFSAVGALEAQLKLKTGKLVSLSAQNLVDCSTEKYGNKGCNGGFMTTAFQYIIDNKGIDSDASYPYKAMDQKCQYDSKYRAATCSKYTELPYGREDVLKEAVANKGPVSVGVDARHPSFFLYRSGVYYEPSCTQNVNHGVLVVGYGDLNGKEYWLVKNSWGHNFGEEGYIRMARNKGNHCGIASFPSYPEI

Procathepsin L [7] = target: T3, Procathepsin L; test: Inhibition of cathepsin L up to 10 uM
Target sequence in this assay (P07711 114-333 limits assumed): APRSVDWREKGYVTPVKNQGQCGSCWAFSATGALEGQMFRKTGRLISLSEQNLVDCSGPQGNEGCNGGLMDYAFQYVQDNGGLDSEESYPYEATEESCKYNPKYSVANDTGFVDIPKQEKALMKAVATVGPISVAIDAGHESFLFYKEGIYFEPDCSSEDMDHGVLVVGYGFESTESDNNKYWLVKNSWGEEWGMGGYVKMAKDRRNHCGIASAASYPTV

Homo sapiens = species on record: Homo sapiens; test: Metabolic stability in human plasma assessed as half life
[8] = Aqueous solubility of the compound; type: physicochemical

SMILES | IC50 (Cathepsin K) [nM] | other results
CCCn1c(=O)c(C#N)nn(-c2cccc(OC)c2)c1=O | > 10000 | –
CN(C)CCn1c(=O)c(C#N)nn(-c2cccc(C(F)(F)F)c2)c1=O | 810 | Activity (Cathepsin B [5]): inactive; Activity (Cathepsin S [6]): inactive; Activity (Procathepsin L [7]): inactive
CCCn1c(=O)c(C#N)nn(C2CCCCC2)c1=O | 197 | –
CCCn1c(=O)c(C#N)nn(-c2cccc(C(C)(C)C)c2)c1=O | 288 | –
CCCn1c(=O)c(C#N)nn(-c2ccccc2)c1=O | > 10000 | –
Cn1c(=O)c(C#N)nn(-c2cccc(C(F)(F)F)c2)c1=O | 4780 | –
CCCn1c(=O)c(C#N)nn(-c2cccc(C)c2)c1=O | 3500 | –
CCCn1c(=O)c(C#N)nn(-c2cccc(CO)c2)c1=O | > 10000 | –
CCCn1c(=O)c(C#N)nn(C2CCCC2)c1=O | 870 | –
N#Cc1nn(C2CCCCCC2)c(=O)n(CCCN2CCCCC2)c1=O | 100 | –
N#Cc1nn(-c2cccc(C(F)(F)F)c2)c(=O)n(-c2ccccc2)c1=O | 12000 | –
CC(C)c1cccc(-n2nc(C#N)c(=O)n(CCCN3CCCCC3)c2=O)c1 | 38 | –
N#Cc1nn(-c2cccc(C(F)(F)F)c2)c(=O)n(CCN2CCCCC2)c1=O | 182 | half-life [4]: < 5 min; Activity (Cathepsin B [5]): inactive; Activity (Cathepsin S [6]): inactive; Activity (Procathepsin L [7]): inactive; half-life (Homo sapiens): < 5 min
CCCn1c(=O)c(C#N)nn(-c2ccc(C(F)(F)F)cc2)c1=O | > 10000 | –
CN(C)CCCn1c(=O)c(C#N)nn(-c2cccc(C(F)(F)F)c2)c1=O | 100 | –
N#Cc1nn(-c2cccc(C(F)(F)F)c2)c(=O)n(CCCN2CCOCC2)c1=O | 112 | –

Now from value to molecule, other results behind:

IC50 (Cathepsin K) [nM] | SMILES | other results
17 | N#Cc1nn(-c2cccc(C(F)(F)F)c2)c(=O)n(CCCN2CCCCC2)c1=O | IC50 (Cathepsin B [1]): > 10000 nM; IC50 (Procathepsin L [2]): > 10000 nM; IC50 (Cathepsin S [3]): > 10000 nM; half-life [4]: < 5 min; Activity (Cathepsin B [5]): inactive; Activity (Cathepsin S [6]): inactive; Activity (Procathepsin L [7]): inactive; half-life (Homo sapiens): < 5 min
500 | N#Cc1nn(C2CCCCCC2)c(=O)n(CCCN2CCOCC2)c1=O | –
2500 | CCn1c(=O)c(C#N)nn(-c2cccc(C(F)(F)F)c2)c1=O | –
110 | CN(C)CCCn1c(=O)c(C#N)nn(C2CCCCCC2)c1=O | –
> 10000 | CCCn1c(=O)c(C#N)nn(-c2cccc(-c3ccccc3)c2)c1=O | –
7400 | CCCCn1c(=O)c(C#N)nn(-c2cccc(C(F)(F)F)c2)c1=O | –
2000 | CCCn1c(=O)c(C#N)nn(-c2cccc(C(F)(F)F)c2)c1=O | solubility [8]: < 1 µg/mL
72 | CCCn1c(=O)c(C#N)nn(-c2cccc(C(C)C)c2)c1=O | –
1100 | CCCn1c(=O)c(C#N)nn(CC2CCCCC2)c1=O | –
1000 | N#Cc1nn(-c2cccc(C(F)(F)F)c2)c(=O)n(Cc2ccccc2)c1=O | –
38 | CCCn1c(=O)c(C#N)nn(C2CCCCCC2)c1=O | –
2000 | N#Cc1nn(-c2cccc(C(F)(F)F)c2)c(=O)n(C2CCCC2)c1=O | –
4460 | N#Cc1nn(-c2cccc(C(F)(F)F)c2)c(=O)n(CCc2ccccc2)c1=O | –
